Test results reported in PMC11249646, “Small-Molecule Disruptors of the Interaction between Calcium- and Integrin-Binding Protein 1 and Integrin αIIbβ3 as Novel Antiplatelet Agents” (ACS Pharmacology & Translational Science, 2024).
Read-outs that look alike come from different tables or passages of the source.

Assays:
[1] = biological target: T1, CIB1 and αIIb interaction (CIB1-GST : F-αIIb peptide) (Homo sapiens, UniProt Q99828); experiment: FP assay, 1536-well qHTS format (primary and confirmatory screen); format: binding; details: for Curve Class (confirmatory screen) / CONFIRMATORY SCREEN Curve Class: qHTS curve class
T1 construct: made in house; host or cells: BL-21 plus RIL cells (E. coli)
T1 sequence (Q99828 1-191): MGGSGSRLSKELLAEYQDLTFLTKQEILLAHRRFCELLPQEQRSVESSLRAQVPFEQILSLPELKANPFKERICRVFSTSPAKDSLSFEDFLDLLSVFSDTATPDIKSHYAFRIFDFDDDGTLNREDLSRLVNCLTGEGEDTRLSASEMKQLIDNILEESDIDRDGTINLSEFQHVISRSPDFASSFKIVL

[2] = biological target: T2, GST-CIB1 : F-scrambled peptide (Homo sapiens, UniProt Q99828); experiment: FP scrambled-peptide counter screen, 1536-well format; format: binding; details: for Curve Class (counterscreen) / COUNTERSCREEN Curve Class: qHTS curve class; for IC50: read-out: IC50 [μM] (counterscreen)
T2 construct: made in house; host or cells: BL-21 plus RIL cells (E. coli)
T2 sequence (Q99828 1-191): T1 sequence (Q99828 1-191)

[3] = Table S3, confirmatory screen, a negative sign marks inhibitory curves
[4] = Table S3, confirmatory screen, negative = inhibition
[5] = qHTS primary screen hits, Table S2, negative = inhibition
[6] = qHTS primary screen hits, Table S2, negative sign = inhibitory curve, several classes where COUNT > 1
[7] = qHTS primary screen hits, Table S2, read-out: IC50
[8] = Table S3, counterscreen, a negative sign marks inhibitory curves
[9] = Table S3, counterscreen, negative = inhibition
[10] = Table S3, confirmatory screen, YES/NO call
[11] = Table S3, confirmatory screen, read-out: IC50 [μM] (confirmatory screen)
[12] = qHTS FP screen hits, Table S2, negative = inhibition
[13] = qHTS FP screen hits, Table S2, one class per curve where COUNT > 1, negative sign = inhibitory curve
[14] = qHTS FP screen hits, Table S2, read-out: IC50
[15] = confirmatory screen, negative sign = inhibitory curve
[16] = confirmatory screen, read-out: IC50 [μM] (confirmatory screen)
[17] = counterscreen, negative sign = inhibitory curve
[18] = scrambled-peptide counterscreen

CO[C@@]12[C@H](COC(N)=O)C3=C(C(=O)C(C)=C(N)C3=O)N1C[C@@H]1N[C@@H]12 [NCGC00163468-05]
Curve Class (confirmatory screen) [1, 3]: 4 | Efficacy (%) (confirmatory screen) [1, 4]: -31% | Efficacy (%) [1, 5]: -38% | Curve Class [1, 6]: -1.2 | IC50 [1, 7]: 25.1 µM | Curve Class (counterscreen) [2, 8]: 3 | Efficacy (%) (counterscreen) [2, 9]: 95% | IC50 ([2]; Table S3, counterscreen): 39.8 µM

CN1CCCN(C(=O)c2cccc(-c3ccc(/C=C4/C(=O)Nc5ccc(Cl)cc54)o3)c2)CC1 [NCGC00346935-01]
Confirm? (confirmatory screen) [1, 10]: YES | Curve Class (confirmatory screen) [1, 3]: -1.3 | Efficacy (%) (confirmatory screen) [1, 4]: -102% | IC50 [1, 11]: 35.5 µM | Efficacy (%) [1, 12]: -37% | Curve Class [1, 13]: -2.2 | IC50 [1, 14]: 15.2 µM | Curve Class (counterscreen) [2, 8]: -1.1 | Efficacy (%) (counterscreen) [2, 9]: -108% | IC50 ([2]; Table S3, counterscreen): 35.5 µM

Cl.N=C(NCCCCCCNC(=N)NC(=N)Nc1ccc(Cl)cc1)NC(=N)Nc1ccc(Cl)cc1 [NCGC00016246-13]
Efficacy (%) (confirmatory screen) ([1]; confirmatory screen): -57% | Confirm? (confirmatory screen) ([1]; confirmatory screen, YES/NO): YES | Curve Class (confirmatory screen) [1, 15]: -2.2 | IC50 [1, 16]: 35.5 µM | Efficacy (%) [1, 12]: -37% | Curve Class [1, 13]: -2.2 | IC50 [1, 14]: 50.1 µM | Efficacy (%) (counterscreen) ([2]; counterscreen): -37% | Curve Class (counterscreen) [2, 17]: -1.2 | IC50 ([2]; counterscreen): 22.4 µM

NS(=O)(=O)c1ccc(Cc2c(-c3ccc(F)c(-c4ccc(F)cc4)c3)nn(-c3nc(C(=O)O)cs3)c2C2CC2)cc1F.O=C(O)C(F)(F)F [NCGC00381623-01]
Curve Class (confirmatory screen) [1, 3]: 3 | Efficacy (%) (confirmatory screen) [1, 4]: 124% | Efficacy (%) [1, 5]: -25% | Curve Class [1, 6]: -2.4 | IC50 [1, 7]: 39.8 µM | Efficacy (%) (counterscreen) [2, 9]: 250% | IC50 ([2]; Table S3, counterscreen): 79.4 µM

Cc1c(Cc2ccc3ccccc3n2)c2cc(F)ccc2n1CC(=O)O [NCGC00386286-04]
Confirm? (confirmatory screen) [1, 10]: YES | Curve Class (confirmatory screen) [1, 3]: -2.1 | Efficacy (%) (confirmatory screen) [1, 4]: -124% | IC50 [1, 11]: 50.1 µM | Efficacy (%) [1, 12]: -116% | Curve Class [1, 13]: -2.1 | IC50 [1, 14]: 44.7 µM | Curve Class (counterscreen) [2, 8]: -2.1 | Efficacy (%) (counterscreen) [2, 9]: -123% | IC50 ([2]; Table S3, counterscreen): 44.7 µM

CC1=C(O)C(=O)C=C2C1=CC=C1[C@@]2(C)CC[C@@]2(C)[C@@H]3C[C@](C)(C(=O)O)CC[C@]3(C)CC[C@]12C [NCGC00178913-04]
Efficacy (%) (confirmatory screen) ([1]; confirmatory screen): -135% | Confirm? (confirmatory screen) ([1]; confirmatory screen, YES/NO): YES | Curve Class (confirmatory screen) [1, 15]: -1.1 | IC50 [1, 16]: 22.4 µM | Efficacy (%) [1, 12]: -84% | Curve Class [1, 13]: -3 | IC50 [1, 14]: 34.1 µM | Efficacy (%) (counterscreen) ([2]; counterscreen): -107% | Curve Class (counterscreen) [2, 17]: -2.1 | IC50 ([2]; counterscreen): 44.7 µM

COc1cc(Nc2c(C#N)cnc3cc(OCCCN4CCN(C)CC4)c(OC)cc23)c(Cl)cc1Cl [NCGC00241107-05]
Efficacy (%) (confirmatory screen) ([1]; confirmatory screen): -73% | Confirm? (confirmatory screen) ([1]; confirmatory screen, YES/NO): YES | Curve Class (confirmatory screen) [1, 15]: -2.2 | IC50 [1, 16]: 44.7 µM | Efficacy (%) [1, 12]: -33% | Curve Class [1, 13]: -2.2 | IC50 [1, 14]: 50.1 µM | Efficacy (%) (counterscreen) ([2]; counterscreen): -37% | Curve Class (counterscreen) [2, 17]: -1.4 | IC50 ([2]; counterscreen): 20 µM

COc1cc(C=C2C(=O)Nc3ccccc32)cc(OC)c1O [NCGC00343740-01]
Efficacy (%) (confirmatory screen) ([1]; confirmatory screen): -81% | Confirm? (confirmatory screen) ([1]; confirmatory screen, YES/NO): YES | Curve Class (confirmatory screen) [1, 15]: -2.2 | Efficacy (%) [1, 5]: -53% | Curve Class [1, 6]: -2.2 | IC50 [1, 7]: 44.7 µM | Efficacy (%) (counterscreen) ([2]; counterscreen): -44% | Curve Class (counterscreen) [2, 17]: -2.4 | IC50 ([2]; counterscreen): 44.7 µM

CN(C)CCN1C(=O)c2cccc3cc(N)cc(c23)C1=O [NCGC00346513-01]
CONFIRMATORY SCREEN Efficacy (%) ([1]; confirmatory screen): -50% | CONFIRMATORY SCREEN Curve Class ([1]; confirmatory screen): 4 | Efficacy (%) [1, 5]: -32% | Curve Class [1, 6]: -1.2 | IC50 [1, 7]: 1.1 µM | COUNTERSCREEN Efficacy (%) ([2]; counterscreen): -24% | COUNTERSCREEN Curve Class ([2]; counterscreen): 4

CC1=NN(c2ccc(C)c(C)c2)C(=O)/C1=N/Nc1cccc(-c2cccc(C(=O)O)c2)c1O [NCGC00274067-01]
Efficacy (%) (confirmatory screen) ([1]; confirmatory screen): -83% | Confirm? (confirmatory screen) ([1]; confirmatory screen, YES/NO): YES | Curve Class (confirmatory screen) [1, 15]: -2.2 | IC50 [1, 16]: 22.4 µM | Efficacy (%) [1, 12]: -69% | IC50 [1, 14]: 44.7 µM | Efficacy (%) (counterscreen) ([2]; counterscreen): -37% | Curve Class (counterscreen) [2, 17]: -1.2 | IC50 ([2]; counterscreen): 35.5 µM

CCCCC(CC)CNC(=N)NC(=N)NCCCCCCNC(=N)NC(=N)NCC(CC)CCCC.Cl.Cl.Cl (stereo not drawn) [NCGC00178352-06]
Efficacy (%) (confirmatory screen) ([1]; confirmatory screen): -86% | Confirm? (confirmatory screen) ([1]; confirmatory screen, YES/NO): YES | Curve Class (confirmatory screen) [1, 15]: -2.1 | IC50 [1, 16]: 28.2 µM | Efficacy (%) [1, 12]: -55% | Curve Class [1, 13]: -1.2 | IC50 [1, 14]: 22.4 µM | Efficacy (%) (counterscreen) ([2]; counterscreen): 93% | Confirm? (counterscreen) ([2]; counterscreen, YES/NO): YES | Curve Class (counterscreen) [2, 17]: 3 | IC50 ([2]; counterscreen): 100 µM

CN1CCc2cccc3c2[C@H]1Cc1ccc(O)c(O)c1-3 [NCGC00025349-05]
Curve Class (confirmatory screen) [1, 3]: 4 | Efficacy (%) (confirmatory screen) [1, 4]: -17% | Efficacy (%) [1, 5]: -58% | Curve Class [1, 6]: -2.4 | IC50 [1, 7]: 12.6 µM | Curve Class (counterscreen) [2, 8]: 4 | Efficacy (%) (counterscreen) [2, 9]: -34%

O=C(O)c1cc(O)c2c(c1)C(=O)c1cccc(O)c1C2=O [NCGC00018199-06]
Efficacy (%) (confirmatory screen) ([1]; confirmatory screen): -66% | Confirm? (confirmatory screen) ([1]; confirmatory screen, YES/NO): YES | Curve Class (confirmatory screen) [1, 15]: -1.2 | Efficacy (%) [1, 5]: -32% | Curve Class [1, 6]: -2.2 | Efficacy (%) (counterscreen) ([2]; counterscreen): -61% | Curve Class (counterscreen) [2, 17]: -1.2

CCCC1CCN(C(=O)COC(=O)c2ccc(S(C)(=O)=O)c([N+](=O)[O-])c2)CC1 [NCGC00188533-01]
CONFIRMATORY SCREEN Confirm? ([1]; confirmatory screen, YES/NO call): YES | CONFIRMATORY SCREEN Curve Class [1, 15]: -1.4 | CONFIRMATORY SCREEN Efficacy (%) ([1]; confirmatory screen, negative = inhibition): -28% | IC50 ([1]; confirmatory screen, read-out: CONFIRMATORY SCREEN IC50): 2.5 µM | Efficacy (%) [1, 12]: -25% | IC50 [1, 14]: 1.3 µM | COUNTERSCREEN Efficacy (%) [2, 18]: -28% | COUNTERSCREEN Confirm? ([2]; scrambled-peptide counterscreen, YES/NO call): YES | COUNTERSCREEN Curve Class [2, 18]: 4

CC[C@@H](CO)NC(=O)[C@@H]1C=C2c3cccc4c3c(cn4C)C[C@H]2N(C)C1.O=C(O)/C=C\C(=O)O [NCGC00024027-06]
Efficacy (%) (confirmatory screen) ([1]; confirmatory screen): -88% | Confirm? (confirmatory screen) ([1]; confirmatory screen, YES/NO): YES | Curve Class (confirmatory screen) [1, 15]: -2.2 | IC50 [1, 16]: 44.7 µM | Efficacy (%) (counterscreen) ([2]; counterscreen): -73% | Curve Class (counterscreen) [2, 17]: -3 | IC50 ([2]; counterscreen): 89.1 µM

CN(C(=O)c1cccs1)c1cccnc1.O=C(O)C(F)(F)F [NCGC00241518-01]
Confirm? (confirmatory screen) [1, 10]: YES | Curve Class (confirmatory screen) [1, 3]: -1.1 | Efficacy (%) (confirmatory screen) [1, 4]: -90% | IC50 [1, 11]: 31.6 µM | Efficacy (%) [1, 12]: -77% | Curve Class [1, 13]: -2.2 | IC50 [1, 14]: 50.1 µM | Curve Class (counterscreen) [2, 8]: -2.1 | Efficacy (%) (counterscreen) [2, 9]: -118% | IC50 ([2]; Table S3, counterscreen): 44.7 µM
